The results in this text go back to patent US20070275953A1 (priority 2003, published 2007).

Read-outs that look alike come from different tables or passages of the source. Where only a bound is given, the exact number is not on record here.

Holding throughout (format): cell-based
The subject of experiment [1] is HIV-1 with WT (wild type) RT in TZM-bl cells. In words: Anti-HIV assay on TZM-bl cell line, WT RT. As for the experimental part:
(§1) Wurzburg Jurkat T cells (subclone JR) were transfected with 10 μg of the circularly permuted infectious molecular clone HIVNL4-3 (Adachi et al., 1986. J. Virol, 59 (2), p 284-291). Two days later, co-cultivation with SupT1 cells (a human T-cell lymphoma cell line) was initiated to facilitate rapid production of progeny virions. Production of virus was measured by using the Innotest HIV Antigen mAb p24 kit (Innogenetics). At the peak of production cultures were harvested and filtered. The virus stocks were stored at −80° C. until used.
(§2) Anti-HIV activity and cytotoxicity of the compounds were tested on the TZM-b1 cell line. The TZM-b1 cell line (Wei et al. 2002. Antimicrob. Agents Chemother. Vol. 46, p 1896-1905) was received from the NIH AIDS Research and Reference Reagent Program. These cells were cultured in complete DMEM medium supplemented with 10% fetal bovine serum (FBS), and 1% Penicillin/Streptomycin. Exponentially growing cells were trypsinized, centrifuged and split twice weekly at 5 10^4 cells/ml.
(§3) The anti-HIV assay with TZM-b1 cells is essentially the same as described above with P4 cells. The main difference between the two cell lines is that the TZM-b1 cells express at their surface both the CD4 and CCR5 proteins, acting as receptor and co-receptor for HIV entry, respectively (Wei et al. 2002. Antimicrob. Agents Chemother. Vol. 46, p 1896-1905). This feature makes the cells very sensitive to infection by the virus. The TMZ-b1 cells were infected with equal amount of cell-free virus, corresponding to 10 ng of HIV p24 antigen. This amount is ten times lower than the amount used to infect the P4 cells.

Experiment [2] concerns HIV-1 with WT (wild type) RT in MT4 cells. In words: Anti-HIV assay on MT4 cell line, WT RT. The protocol: as §1
(§4) Anti-HIV activity of the compounds was tested on MT-4 cell line. The MT-4 cell line (Larder et al. 1989. Sciences, Vol. 243 p 1731) was received from the NIH AIDS Research and Reference Reagent Program. These cells were cultured in RPMI medium supplemented with 10% fetal bovine serum (FBS), and 1% Penicillin/Streptomycin. The cultures were split regularly to keep cells densities between 0.3 to 1.2 10^6 cells/ml.
(§5) The MT-4 cells rapidly die upon infection by HIV. In this system there is an inverse correlation between cells survival and the amount of viral replication.
(§6) Briefly, in the anti-HIV assay exponentially growing MT-4 cells were infected with HIV-1. 100 μl of infected MT-4 cells were seeded in 96-well plate at a concentration of 0.4 10^5 cells/ml, and 100 μl of the different drugs dilutions were added to the cells. After 4 days of incubation at 37° C., 5% CO2, cells survival was measured using MTS (3-(4-5-dimethylthiazol-2-yl)-5-(−(3-carboxymethoxyphenyl)-2-(4-sulfophenyl)-2H-tetrazolium) assays. This compound is reduced by viable cells in a colored soluble formazan salt.
(§7) The absorbance was measured on a Benchmark™ Microplate Reader (Biorad) (λ=490 nm) and compared with 12 cell control replicates (nor virus nor drug added) and 12 virus control wells (no drug added). Each assay was performed a minimum of three times. The 50% effective concentration (EC50) was calculated from each dose response curve using the CurveExpert 1.3 software.

The subject of experiment [3] is HIV-1 mutant Cys181RT in TZM-bl cells. In words: Anti-HIV assay on TZM-bl cells, Cys181RT mutant. As to conditions: read-out: EC50 Cys181RT TZM-bl.
Source text: (§8) In order to introduce mutation(s) at the level of the pol gene coding for the RT in the pNL4-3 plasmid containing the complete viral genome (Adachi et al., 1986. J. Virol., Vol. 59 p 284-291) we used the “Quick change mutagenesis kit” (Stratagene). The following mutations were separately introduced in pNL4-3: L100I, K103N, V108I, Y181C, Y188C, and the double mutations K103N/V108I. These mutations were chosen because of the resistance that they confer to existing NNRTI. The production procedure of the mutant viral stocks is identical to the one described above.
as §2, §3

Experiment [4] relates to HIV-1 mutant Cys181RT in MT4 cells. In words: Anti-HIV assay on MT4 cells, Cys181RT mutant.
Source text: as §8, §4, §5, §6, §7

The subject of experiment [5] is HIV-1 mutant Asn103RT in MT4 cells. In words: Anti-HIV assay on MT4 cells, Asn103RT mutant.
Source text: as §8, §4, §5, §6, §7

In experiment [6] the test system is HIV-1 mutant Asn103/Ile108RT in P4 cells. In words: Anti-HIV assay on P4 cells, Asn103/Ile108RT double mutant.
Source text: as §8
Anti-HIV activity and cytotoxicity of the compounds were tested on a P4 cell line. The P4 cell line (Clavel & Charneau, 1994. J. Virol., Vol. 68 p 1179-1185) was provided by Dr. François Clavel (Unité de recherche antivirale de l'hôpital Xavier Bichat Paris: Inserm). The P4 cells were cultured in complete DMEM medium supplemented with 10% fetal bovine serum (FBS), 0.5% of Penicillin/Streptomycin and G418 at 0.5 mg/ml. Exponentially growing cells were trypsinized, centrifuged and split twice weekly at 5.10^4 cells/ml.
The P4 cells are HIV-infectible Hela-CD4 cells that carry the bacterial lacZ gene under the control of the HIV-1 long terminal repeat (LTR). In this cell line, transcription of the LacZ gene is driven by the HIV-1 LTR. As such, the cytoplasmic accumulation of β-galactosidase is strictly dependent on the presence of the HIV transactivator Tat produced during the intracellular viral replication (Clavel & Charneau, 1994. J. Virol., Vol. 68, p. 1179-1185). In other words, in this system, the expression level of the β-galactosidase gene is proportional to the viral replication.
Briefly, in the anti-HIV assay 100 Ål of P4 cells were plated in 96-well plate at a concentration of 0.4 10^5 cells/ml and incubated at 37° C., 5% CO2. After 48 h, the medium was removed and 100 Ål of the different drugs dilutions were added to the cells. Four hours after the addition of the drugs all cells were infected with equal amount of cell-free virus, corresponding to 100 ng of HIV p24 antigen. After 48 h of incubation at 37° C., 5% CO2, β-galactosidase activity was measured using chlorophenol red-β-D-galactopyranoside assays.
The absorbance was measured on a Benchmark™ Microplate Reader (Biorad) (λ=570 nm) and compared with 12 cell control replicates (no virus or drug added) and 12 virus control wells (no drug added). Each assay was performed a minimum of three times. The 50% effective concentration (Ec50) was calculated from each dose response curve using the CurveExpert 1.3 software. As Nevirapine activity corresponds to its published values (10-100 nM), the data are consistent with other measures of viral replication.

The mark [7] stands for this setting: Human immunodeficiency virus 1, TZM-bl.
Setting [8] is: Human immunodeficiency virus 1, MT4, read-out: EC50 Cys181RT MT4.
[9] abbreviates: Human immunodeficiency virus 1, MT4, read-out: EC50 Asn103RT MT4.
The mark [10] stands for this setting: Human immunodeficiency virus 1, read-out: EC50 Asn103/Ile108RT F4.
The mark [11] stands for this setting: column head prints F4, double mutant Asn103/Ile108RT, read-out: EC50 Asn103/Ile108RT F4.

`O=C1Nc2ccc(Cl)cc2[C@@](C#CC2CC2)(C(F)(F)F)O1` [Efavirenz, reference compound]: the EC50 in experiment [1] (Human immunodeficiency virus 1) was < 1 nM; in experiment [2] (Human immunodeficiency virus 1), < 1 nM; in experiment [3] (setting [7]), < 1 nM; in experiment [4] (setting [8]) it was < 1 nM; in experiment [5] (setting [9]) it was 5 nM; in experiment [6] (setting [10]), 9 nM.

On to `Cc1ccnc2c1NC(=O)c1cccnc1N2C1CC1` [Nevirapine, reference compound], for which the EC50 in experiment [1] (Human immunodeficiency virus 1) is 56 nM; in experiment [2] (Human immunodeficiency virus 1) it was 575 nM; in experiment [3] (setting [7]) it was 8300 nM; in experiment [5] (setting [9]), > 25000 nM; in experiment [6] (setting [10]), 6250 nM. The “EC50 Cys181RT MT4” value in experiment [4] (MT4, mutant Cys181RT) is “Inactive”.

As to `CCOC(=O)c1c(OC2CC(C)CC(C)C2)c(CC)c(C)[nH]c1=O` (single isomer, unassigned) [Z37inv], the EC50 in experiment [1] was 439 nM; in experiment [3] (TZM-bl, mutant Cys181RT), 2540 nM.

In the case of `CCc1c(C)[nH]c(=O)c(N(C)C)c1OC1CC(C)CC(C)C1` (centres unmarked) [Z150, 3-(dimethylamino)-5-ethyl-6-methyl-4-[(3,5-dimethylcyclohexyl)oxy]pyridine-2(1H)-one], the EC50 was < 1 nM in experiment [1] (Human immunodeficiency virus 1); < 1 nM in experiment [2] (Human immunodeficiency virus 1); 86 nM in experiment [3] (setting [7]); 320 nM in experiment [4] (setting [8]); < 1 nM in experiment [5] (setting [9]); 27 nM in experiment [6] (setting [10]).

For the compound `CCc1c(C)[nH]c(=O)c(CO)c1OC1CC(C)CC(C)C1` (centres unmarked) [Z45inv], the EC50 in experiment [1] was 197 nM; in experiment [3] (TZM-bl, mutant Cys181RT), 3200 nM; in experiment [6] (setting [11]), 19200 nM.

Regarding `CCc1c(C)[nH]c(=O)c([N+](=O)[O-])c1OC1CC(C)CC(C)C1` (centres unmarked) [Z91inv, 3-nitro-5-ethyl-6-methyl-4-[(3,5-dimethylcyclohexyl)oxy]pyridine-2(1H)-one], the EC50 is < 1 nM in experiment [1] (Human immunodeficiency virus 1); < 1 nM in experiment [2] (Human immunodeficiency virus 1); 58 nM in experiment [3] (setting [7]); 2440 nM in experiment [4] (setting [8]); 980 nM in experiment [5] (setting [9]); 180 nM in experiment [6] (setting [10]).

`CCc1c(C)[nH]c(=O)c(C)c1OC1CC(C)CC(C)C1` (centres unmarked) [Z154]: the EC50 in experiment [1] was 3 nM; in experiment [2], < 1 nM; in experiment [3] (TZM-bl, mutant Cys181RT), 288 nM; in experiment [6] (setting [11]), 88 nM.

Turning to `CCc1c(C)[nH]c(=O)c(CSC(C)=O)c1OC1CC(C)CC(C)C1` (centres unmarked) [Z114], the EC50 came out at 11 nM in experiment [1]; 136 nM in experiment [2]; 411 nM in experiment [3] (TZM-bl, mutant Cys181RT); 1930 nM in experiment [6] (setting [11]). Moreover, in experiment [4] (MT4, mutant Cys181RT), the “EC50 Cys181RT MT4” value is “Inactive”. Also, the “EC50 Asn103RT MT4” value in experiment [5] (MT4, mutant Asn103RT) was “inactive”.

For `CCc1c(C)[nH]c(=O)c(CN=[N+]=[N-])c1OC1CC(C)CC(C)C1` (centres unmarked) [Z153], the EC50 is < 1 nM in experiment [1]; 83 nM in experiment [3] (TZM-bl, mutant Cys181RT); 780 nM in experiment [4] (MT4, mutant Cys181RT, read-out: EC50 Cys181RT MT4); 150 nM in experiment [5] (MT4, mutant Asn103RT, read-out: EC50 Asn103RT MT4); 70 nM in experiment [6] (setting [11]).
